Reference: PMC11068563, “The MCU and MCUb amino-terminal domains tightly interact: mechanisms for low conductance assembly of the mitochondrial calcium uniporter complex” (iScience, 2024)

How the values were obtained:
[1] = target: T1, MCUb-NTD (MCUb58-159) (Homo sapiens, UniProt Q9NWR8); test: ANS fluorescence titration, one-site fit; type: binding; details: read-out: apparent KD
T1 construct: N-terminal domain, residues 58-159; pET-28a, E. coli BL21(DE3) codon plus; N-terminal 6xHis tag cut with thrombin
T1 sequence (Q9NWR8 58-159): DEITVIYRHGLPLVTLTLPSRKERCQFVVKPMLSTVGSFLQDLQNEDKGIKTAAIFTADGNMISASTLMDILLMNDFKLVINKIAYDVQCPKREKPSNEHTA

[2] = target: T2, MCU-NTD-fluorescein (MCU residues 72-189 labelled with fluorescein-MTS at Cys97) (human, UniProt Q8NE86-1 72-189, fluorescein (fluorescein-methane thiosulfonate) on Cys97); test: other fluorescence titration; steady-state fluorescein fluorescence; 0.1 uM MCU-NTD-fluorescein titrated with MCUb-NTD; 20 mM Tris (pH 8.5), 150 mM NaCl, 1 mM DTT, 0.0001% (v/v) NP-40, 22.5°C; one-site model; details: both partners purified
T2 construct: mitochondrial calcium uniporter (MCU), Homo sapiens, GenBank NP_612366.1, residues 72-189 (amino-terminal domain); Same chain as m2, with the label; also called fluorescein-MCU-NTD; MCU_(72-189) labeled
T2 sequence (looked up): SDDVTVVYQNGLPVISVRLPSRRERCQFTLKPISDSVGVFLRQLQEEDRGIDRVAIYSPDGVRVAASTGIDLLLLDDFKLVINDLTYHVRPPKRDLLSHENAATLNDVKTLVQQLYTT

O=S(=O)(O)c1cccc2cccc(Nc3ccccc3)c12 [ANS, 8-Anilinonapthalene 1-sulfonic acid]
Kd [1]: 1500 ± 600 nM

B1: MCUb amino-terminal domain (MCUb-NTD), MCUb residues 58-159 (domain or fragment, human, UniProt Q9NWR8 58-159, looked up)
chain: DEITVIYRHGLPLVTLTLPSRKERCQFVVKPMLSTVGSFLQDLQNEDKGIKTAAIFTADGNMISASTLMDILLMNDFKLVINKIAYDVQCPKREKPSNEHTA
notes: MCU dominant negative beta subunit (MCUb), Homo sapiens, GenBank NP_060388.2, residues 58-159 (amino-terminal domain); Cloned into pET-28a by NheI and XhoI; printed as 6xHis-MCUb_(58-159); theoretical monomer mass 12.0098 kDa and 107 expected backbone amides are printed, so a few vector residues probably remain after thrombin cleavage (surmise); also called MCUb_(58-159); 15N-MCUb-NTD; source: E. …
Kd [2]: 125 nM
